In PubChem BioAssay (NCI):
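48-hour exposure; five concentrations; linearly interpolated endpoints. GI50 is the concentration that inhibits growth by half. TGI marks complete inhibition of growth.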

Test system: OVCAR-3 ovarian
Assay: NCI tumour cell line growth inhibition, 48 h

Compound	TGI [µM]	GI50 [µM]
COC(=O)C(=Cc1cc(OC)c(OC)c(OC)c1-c1cc2c(cc1C1(C)OCCS1)OCO2)C(=O)OC (stereo unspecified)	54.6	
C#CC1/C(=C\C(=O)OC)CCCC1O (stereo unspecified)	> 100	
CC12CCC(=O)C[C@H]1CCC(OC=O)C2Br (stereo partly specified)	> 100	
COc1ccc(-c2nnc3n(C)c(=O)c4ccccc4n23)cc1N	> 100	0.0474
CN(C)C1CCN(C(=O)c2ccc(NC(=O)Nc3ccc(-c4nc(N5CCOCC5)c5cccn5n4)cc3)cc2)CC1	1.12	0.0412
COc1cnc2c(c1)C(=O)c1c-2n(CCCNC2=NCCS2)c(=O)c2cc([N+](=O)[O-])ccc12	1.81	0.137
COc1ccc(OCC(=O)O)c2c1CCCC2=O	> 100	
Cc1nc(Nc2ccc(Cl)cc2)sc1C(=O)NNC(=S)NN	39.5	
COc1ccc2c(c1OCC(=O)O)C(=O)C(CCC(=O)O)CC2 (stereo unspecified)	> 100	
Cc1ccc2nc(/C(=C/c3ccc(/C=C(\NC(=O)c4ccccc4)c4nc5ccc(C)cc5[nH]4)c(C)c3)NC(=O)c3ccccc3)[nH]c2c1	22	
COC1C(OC(=S)Nc2ccccc2)c2ccccc2N1C(C)=O (stereo unspecified)	> 100	
O=C(Nc1cccc(Cl)c1)C(=O)C(C(=O)c1ccc2ccccc2c1)C1OC(=O)c2ccccc21 (stereo unspecified)	56.6	
CC1=Cc2cccc(C)c2C(=O)C1=O	6.78	
Cc1ccc(C)c(NC(=O)c2cccc([N+](=O)[O-])c2O)c1	> 100	
COC(=O)c1ccc2c(c1)C(=O)c1c-2n(CCCN=[N+]=[N-])c(=O)c2cc(OC)c(OC)cc12	> 100	> 100
COCC(OC)C(CC=C(C#N)C#N)OC (stereo unspecified)	> 100	
NC1CCN(Cc2ccccc2)CC1	> 100	> 100
N#Cc1nn(-c2cc(=O)[nH]c3ccc(Cl)cc23)c(N)c1C#N	> 100	> 100
On1c(-c2ccccc2)c(-c2ccccc2N2CCCC2)c2ccccc21	> 100	
N#CC(C(=O)/C(=N\NC(N)=O)C(C#N)c1ccc(Cl)cc1)c1ccc(Cl)cc1 (stereo unspecified)	> 100	
CC(C)(C)c1cc(C(P(=O)(O)O)P(=O)(O)O)cc(C(C)(C)C)c1O	> 100	

Compound	TGI [µM]	GI50 [µM]
CC(C)C1=Cc2ccc3c(c2C(=O)C1=O)CCCC3(C)C	6.71	
Nc1ncn([C@@H]2O[C@H](CO)[C@@H](O)[C@H]2O)c(=O)n1	3.69	1.56
CSc1nc(SC)c2c(C#N)[nH]nc2n1	> 100	
COc1c(O)c2c(=O)cc3c4c5c(cc(=O)c6c(O)c(OC)c(CC(C)O)c(c(c1CC(C)O)c24)c65)OCO3 (stereo unspecified)	6.63	
COc1ccc(CCN(C)C2CCC(C#N)(c3ccc(OC)c(OC)c3)CC2)cc1OC (stereo unspecified)	> 100	
C=CCC1(c2ccc(OC)cc2)C=CC(=O)CC1 (stereo unspecified)	> 100	
COC(=O)[C@]12CC[C@@H](C)[C@H](C)[C@@H]1C1=CC[C@@H]3[C@@]4(C)C[C@@H](O)[C@H](O)[C@@](C)(CO)C4=CC[C@@]3(C)[C@]1(C)CC2	37.8	18.3
COc1ccc(C(=O)Nc2ccc(O)c(=O)cc2)cc1	90	
Cc1nc(N)sc1N=Nc1ccccc1Br	> 79.9	
CCOC(=O)c1nc2c(OC)nn(O)cc-2c1[N+](=O)[O-]	35.2	
C/C(CC(=O)Nc1ccc(C)c(C)c1)=N\N(c1ccccc1)c1ccccc1	> 100	
COC(=O)/C(=N\NC(N)=S)C(C(=O)OC)C(=O)C(=O)Nc1ccc(C)cc1 (stereo unspecified)	> 100	
O=C(OC1CCC(=C2SCCCS2)[C@H]1C1SCCCS1)c1ccccc1 (stereo partly specified)	> 100	
O=C1CCC2(c3ccc(Cl)cc3)Nc3cc(Cl)ccc3N12 (stereo unspecified)	22.4	
CC1(C)COC(c2cccc3c2C(=O)c2cccc(Cl)c2-3)=N1	> 100	
CN(C)CCC(/C=C/c1ccccc1)=N\Nc1ccccc1	6.5	
CCOC(=O)c1ccc(/C(C)=N/NC(N)=S)cc1	> 100	
c1ccc2c(OCCSCCCCCCCCCCSCCOc3cccc4ccccc34)cccc2c1	> 100	
Cc1cc2c(=O)c3ccccc3[nH]c2c(C(N)=O)c1C	> 100	
O=C(Nc1cccc(C(F)(F)F)c1)c1ccc(NC2=C(Cl)C(=O)N(Cc3ccc(Cl)cc3Cl)C2=O)cc1	30.9	15.3
CN1CCC(=O)/C(=C/c2ccccc2)C1	26.2	
